Laboratory results: ChEMBL document CHEMBL1201862, “PubChem BioAssay data set” (2004)
Several values for one entry are separate records, joined by “and”; a condition that tells them apart may be missing. Identical values can stand only once. Activity calls are given as the source filed them.

Assays:
[1] = P. falciparum late gametocyte killing, dose response, luminescence (AID 1117278); assay type: functional, cell-based;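 also: gametocytes exposed to compound for 24 hours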
[2] = Jurkat T cell cytotoxicity, dose response, cytotoxicity control for P. falciparum gametocyte viability project, luminescence (AID 1117277); assay type: functional, cell-based;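 also: potency reflects loss of cellular ATP meaning fewer viable cells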
[3] = Concentration-dependent survival of SW480 colon cancer line, luminescence detection with CellTiter-Glo, half-maximal inhibitory concentration (AID 1117338); assay type: functional
[4] = cytotoxicity toward Colo320 cells – cell-based, CellTiter-Glo luminescence, IC50, dose response (AID 1117334); assay type: functional; details: COLO 320
[5] = HCT116 cell viability decrease, GSK3B pretreatment – CellTiter-Glo, IC50, dose response (AID 1117339); assay type: functional; details: HCT-116
[6] = RKO cell viability reduction, dose response, CellTiter-Glo luminescence (AID 1117322); assay type: functional
[7] = cytotoxicity toward HCT116 cells – cell-based, CellTiter-Glo luminescence, IC50, dose response (AID 1117332); assay type: functional; details: HCT-116
[8] = CellTiter-Glo luminescent dose response of DLD-1 viability loss (AID 1117352); assay type: functional
[9] = SNU-C1 cell viability reduction, dose response, CellTiter-Glo luminescence (AID 1117323); assay type: functional, cell-based
[10] = cytotoxicity toward HT-29 cells – cell-based, CellTiter-Glo luminescence, IC50, dose response (AID 1117330); assay type: functional
[11] = HepG2 cell cytotoxicity, dose response, cytotoxicity control, ATP luminescence, cherry-pick, set 6 (AID 1053125); assay type: functional, cell-based
cells = details: HEK293
[12] = biological target: NAD-dependent protein deacylase sirtuin-5, mitochondrial (Homo sapiens, UniProt Q9NXA8); experiment: SIRT5 deacylase inhibitors, dose response, biochemical, fluorescence imaging, cherry-pick, set 6 (AID 720597)
[13] = inhibitors of non-replicating M. tuberculosis, dose response, luciferase, dry powder (AID 651619); assay type: functional; details: Mycobacterium tuberculosis
[14] = inhibitors of non-replicating M. tuberculosis, dose response, luciferase, dry powder (AID 651620); assay type: functional; details: Mycobacterium tuberculosis
[15] = biological target: C-C chemokine receptor type 6 (Homo sapiens, UniProt P51684); experiment: SAR analysis of small molecule antagonists of the CXCR6 receptor using a CCR6 receptor luminescent beta-arrestin counterscreen.; assay type: functional
[16] = biological target: C-X-C chemokine receptor type 4 (Homo sapiens, UniProt P61073); experiment: SAR analysis of small molecule antagonists of the CXCR6 receptor using a CXCR4 receptor luminescent beta-arrestin counterscreen.; assay type: functional
[17] = P. falciparum Dd2 blood-stage growth inhibition, dose response, SYBR Green fluorescence, erythrocytes, dry powder, set 2 (AID 1159574); assay type: functional, cell-based
[18] = biological target: T1, Low molecular weight phosphotyrosine protein phosphatase (Homo sapiens, UniProt P24666); experiment: LMPTP phosphatase inhibitors, colorimetric pNPP readout, dose response, orthogonal assay, biochemical, absorbance, pNPP substrate, LMPTP-A isoform, set 2 (AID 743308); assay type: functional
T1 sequence (P24666 whole entry): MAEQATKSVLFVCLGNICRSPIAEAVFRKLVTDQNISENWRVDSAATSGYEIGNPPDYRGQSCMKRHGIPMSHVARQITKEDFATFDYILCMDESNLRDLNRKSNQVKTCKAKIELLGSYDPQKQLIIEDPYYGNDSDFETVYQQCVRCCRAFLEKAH

[19] = biological target: T1, Low molecular weight phosphotyrosine protein phosphatase; experiment: LMPTP phosphatase inhibitors, dose response, biochemical, OMFP substrate, fluorescence intensity, set 2 (AID 743307); assay type: functional

Chain of C-X-C chemokine receptor type 4 (P61073 whole entry): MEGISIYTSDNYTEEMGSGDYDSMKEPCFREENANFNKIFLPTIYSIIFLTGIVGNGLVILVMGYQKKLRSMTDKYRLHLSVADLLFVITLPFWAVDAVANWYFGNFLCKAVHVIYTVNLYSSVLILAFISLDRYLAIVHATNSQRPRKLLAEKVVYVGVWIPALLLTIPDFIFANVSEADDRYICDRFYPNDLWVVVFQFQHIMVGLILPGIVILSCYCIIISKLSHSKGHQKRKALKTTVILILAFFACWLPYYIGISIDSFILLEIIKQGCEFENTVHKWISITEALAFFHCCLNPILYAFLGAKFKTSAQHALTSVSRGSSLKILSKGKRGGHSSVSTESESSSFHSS
Chain of C-C chemokine receptor type 6 (P51684 whole entry): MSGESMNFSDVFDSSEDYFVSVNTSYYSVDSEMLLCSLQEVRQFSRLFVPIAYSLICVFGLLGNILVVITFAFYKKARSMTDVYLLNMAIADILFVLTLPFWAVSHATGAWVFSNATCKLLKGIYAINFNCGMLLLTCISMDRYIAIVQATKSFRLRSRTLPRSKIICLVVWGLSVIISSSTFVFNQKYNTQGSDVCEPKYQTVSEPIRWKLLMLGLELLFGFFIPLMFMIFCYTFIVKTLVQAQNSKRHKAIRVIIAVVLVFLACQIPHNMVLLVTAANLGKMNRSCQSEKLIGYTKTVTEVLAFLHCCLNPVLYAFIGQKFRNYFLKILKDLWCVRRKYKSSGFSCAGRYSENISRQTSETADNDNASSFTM
Chain of NAD-dependent protein deacylase sirtuin-5, mitochondrial (Q9NXA8 whole entry): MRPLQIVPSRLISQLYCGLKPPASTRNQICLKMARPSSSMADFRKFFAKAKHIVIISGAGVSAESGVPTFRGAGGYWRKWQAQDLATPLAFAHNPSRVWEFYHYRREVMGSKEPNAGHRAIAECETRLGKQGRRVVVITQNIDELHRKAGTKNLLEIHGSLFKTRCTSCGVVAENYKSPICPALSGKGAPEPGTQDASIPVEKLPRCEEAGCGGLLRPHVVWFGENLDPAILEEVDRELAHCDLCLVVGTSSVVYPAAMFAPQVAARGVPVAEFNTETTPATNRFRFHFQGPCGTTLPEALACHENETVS

Compound: O=C(Cn1cnc2ccccc2c1=O)Nc1ccc(S(=O)(=O)N2CCOCC2)cc1
- IC50 [1]: > 109 µM (inactive)
- IC50 [2]: > 83.3 µM (inactive)

Compound: O=C(OCCO)c1ccccc1O
- IC50 [3]: > 20 µM (inactive)
- IC50 [4]: > 20 µM (inactive)
- IC50 [5]: > 20 µM (inactive)
- IC50 [6]: > 20 µM (inactive)
- IC50 [7]: > 20 µM (inactive)
- IC50 [8]: > 20 µM (inactive)
- IC50 [9]: > 20 µM (inactive)
- IC50 [10]: > 20 µM (inactive)

Compound: Cc1c(C(=O)NCc2cccc(C(F)(F)F)c2)sc(=O)n1Cc1ccc(C(=O)N(C)C)cc1
- AC50 [11]: > 52 µM (inactive)
- AC50 (cells): > 52 µM (inactive)

Compound: Cc1noc(C)c1NC(=O)Nc1ccc2c(c1)C(=O)N([C@H](C)CO)C[C@H](C)[C@@H](CN(C)Cc1ccc(C(F)(F)F)cc1)OCCCC[C@@H](C)O2
- AC50 [12]: > 30 µM (inactive)

Compound: [N-]=[N+]=NCCOCCNC(=O)CCCOc1ccc(C[S+]([O-])c2nnc(-c3ccc(Cl)cc3)o2)nc1 (stereo not given)
- IC90 [13]: 8 µM (active)
- IC90 [14]: 8 µM (active)

Compound: COc1cc(C(=O)NC2CC3CCCC(C2)N3CC(=O)Nc2ccccc2Cl)cc(OC)c1OC (stereo not given)
- IC50 [15]: > 79 µM (inactive)
- IC50 [16]: > 79 µM (inactive) and 60.1 µM (inactive)

Compound: O=C(c1ccccc1F)N1CC(=O)N2[C@H](C1)[C@H](c1ccc(-c3cccnc3)cc1)[C@@H]2CO
- AC50 [17]: 19.4 µM (active)

Compound: c1ccc(-c2cc(NCCN3CCOCC3)c3ccccc3n2)cc1
- IC50 [18]: 3.28 µM (active)
- IC50 [19]: 2.13 µM (active)
